Data set [1] has as its target human cloned 5-HT6 receptors (Homo sapiens, UniProt P50406). Put plainly: Evaluation of 5-HT6 binding affinity of test compounds ([3H]-LSD displacement).

Structures can show the parent of a compound that is named as a salt.

human cloned 5-HT6 receptors, sequence (P50406 whole entry): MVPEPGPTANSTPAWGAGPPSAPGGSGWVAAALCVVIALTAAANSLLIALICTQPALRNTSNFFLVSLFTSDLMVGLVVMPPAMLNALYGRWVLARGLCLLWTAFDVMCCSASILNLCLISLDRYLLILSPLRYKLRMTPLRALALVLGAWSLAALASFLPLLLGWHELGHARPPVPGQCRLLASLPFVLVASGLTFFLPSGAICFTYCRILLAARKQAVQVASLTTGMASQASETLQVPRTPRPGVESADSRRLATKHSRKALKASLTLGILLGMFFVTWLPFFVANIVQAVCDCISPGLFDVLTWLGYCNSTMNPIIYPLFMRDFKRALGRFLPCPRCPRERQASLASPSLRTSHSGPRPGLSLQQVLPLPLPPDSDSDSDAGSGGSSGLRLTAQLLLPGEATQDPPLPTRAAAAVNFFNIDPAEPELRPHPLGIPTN

As for `O=S(=O)(c1cccc2ccccc12)c1n[nH]c2ccc(OC3CCNC3)cc12` (centres unmarked) (as salt: hydrochloride) [Example 1, 3-(Naphthalene-1-sulfonyl)-5-(pyrrolidin-3-yloxy)-1H-indazole], the melting point (usually the temperature of the solid-liquid transition) was 168 to 170 °C (dec.).
The same measure, in the same setting: for `O=S(=O)(c1cccc2ccccc12)c1n[nH]c2ccc(OC3CCNCC3)cc12` (as salt: hydrochloride) [Example 6, 3-(1-Naphthylsulfonyl)-5-(piperidin-4-yloxy)-1H-indazole Hydrochloride] the value was 174 to 176 °C (dec.).
Molecule `CN1CCC(Oc2ccc3[nH]nc(S(=O)(=O)c4cccc5ccccc45)c3c2)CC1` (as salt: hydrochloride) [Example 21, 5-(1-Methylpiperidin-4-yloxy)-3-(1-naphthylsulfonyl)-1H-indazole Hydrochloride] returned a melting point of 252 to 254 °C.
For the molecule `O=S(=O)(c1cccc2ccccc12)c1n[nH]c2ccc(OCC3CCNCC3)cc12` [Example 27, 3-(1-naphthylsulfonyl)-5-(piperidin-4-ylmethoxy)-1H-indazole], the melting point lay in the range of 175 to 177 °C. In addition, in data set [1], the Ki (in general, the equilibrium dissociation constant of an inhibitor or competing ligand from its target) fell in the range of 11 to 25 nM.
In the case of `O=S(=O)(c1cccc2ccccc12)c1n[nH]c2ccc(OCC3CCCNC3)cc12` (centres unmarked) [Example 28, 3-(1-Naphthylsulfonyl)-5-(piperidin-3-ylmethoxy)-1H-indazole], the melting point fell in the range of 168 to 170 °C. Also, the Ki in data set [1] is 0.01 to 10 nM.
Regarding `O=S(=O)(c1cccc2ccccc12)c1n[nH]c2ccc(OC3CCCNC3)cc12` (centres unmarked) [Example 29, 3-(1-Naphthylsulfonyl)-5-(piperidin-3-yloxy)-1H-indazole], the melting point was in the range of 178 to 180 °C. In addition, the Ki in data set [1] lay within 0.01 to 10 nM.
In data set [1], `O=S(=O)(c1cccc(F)c1)c1n[nH]c2ccc(NC3CCNCC3)cc12` [Example 45, 3-[(3-fluorophenyl)sulfonyl]-N-piperidin-4-yl-1H-indazol-5-amine] gave an inhibition constant Ki of 0.01 to 10 nM.
Same read-out and setting: as for `O=S(=O)(c1ccc(F)cc1)c1n[nH]c2ccc(NC3CCNCC3)cc12` [Example 46, 3-[(4-fluorophenyl)sulfonyl]-N-piperidin-4-yl-1H-indazol-5-amine], the figure is 0.01 to 10 nM; as for `CC(C)c1ccc(S(=O)(=O)c2n[nH]c3ccc(NC4CCNCC4)cc23)cc1` [Example 47, 3-[(4-isopropylphenyl)sulfonyl]-N-piperidin-4-yl-1H-indazol-5-amine], 0.01 to 10 nM; as for `O=S(=O)(c1ccc(C(F)(F)F)cc1)c1n[nH]c2ccc(NC3CCNCC3)cc12` [Example 48, N-piperidin-4-yl-3-{[4-(trifluoromethyl)phenyl]sulfonyl}-1H-indazol-5-amine], 0.01 to 10 nM.
As to `O=S(=O)(c1ccccc1)c1n[nH]c2ccc(NC3CCNCC3)cc12` [Example 49, 3-(phenylsulfonyl)-N-piperidin-4-yl-1H-indazol-5-amine], the Ki in data set [1] lay within 0.01 to 10 nM.
The same measure, in the same setting: as for `COc1ccc(S(=O)(=O)c2n[nH]c3ccc(NC4CCNCC4)cc23)cc1` [Example 50, 3-[(4-methoxyphenyl)sulfonyl]-N-piperidin-4-yl-1H-indazol-5-amine], the figure is 0.01 to 10 nM.
In data set [1], `Cc1cccc(S(=O)(=O)c2n[nH]c3ccc(NC4CCNCC4)cc23)c1` [Example 51, 3-[(3-methylphenyl)sulfonyl]-N-piperidin-4-yl-1H-indazol-5-amine] displayed an inhibition constant Ki of 0.01 to 10 nM.
Still for that read-out and setting: for `O=C(Nc1ccc2[nH]nc(S(=O)(=O)c3cccc4ccccc34)c2c1)C1CCNCC1` [Example 52, N-[3-(1-Naphthylsulfonyl)-1H-indazol-5-yl]piperidine-4-carboxamide Hydrochloride] the value was 0.01 to 10 nM.
For `O=C(Nc1ccc2c(S(=O)(=O)c3cccc4ccccc34)n[nH]c2c1)C1CCNCC1` [Example 53, N-[3-(1-Naphthylsulfonyl)-1H-indazol-6-yl]piperidine-4-carboxamide Dihydrochloride], the Ki in data set [1] lay within 26 to 35 nM.
`O=C(Nc1cccc2c(S(=O)(=O)c3cccc4ccccc34)n[nH]c12)C1CCNCC1` [Example 54, N-[3-(1-Naphthylsulfonyl)-1H-indazol-7-yl]piperidine-4-carboxamide Dihydrochloride] showed an inhibition constant (Ki) in data set [1] of 26 to 35 nM.
For `O=C(Nc1cccc2c(S(=O)(=O)c3cccc4ccccc34)n[nH]c12)C1CCCNC1` (centres unmarked) [Example 55, N-[3-(1-Naphthylsulfonyl)-1H-indazol-7-yl]piperidine-3-carboxamide Dihydrochloride], the Ki in data set [1] fell in the range of 0.01 to 10 nM.
